Literature values, collected in paper PMC2866172 (Journal of medicinal chemistry, 2010).

Test system: MTB enoyl-ACP reductase InhA
Settings: on MTB enoyl-ACP reductase InhA; cited from earlier work

For `NC(=O)C1=CN([C@@H]2O[C@H](COP(=O)(O)OP(=O)(O)OC[C@H]3O[C@@H](n4cnc5c(N)ncnc54)[C@H](O)[C@@H]3O)[C@@H](O)[C@H]2O)C=C[C@@H]1C(=O)c1ccncc1` [INH-NAD adduct], the Residence time is given as 60 min.
